According to ChEMBL document CHEMBL5344418, “Recent developments in antimalarial activities of 4-aminoquinoline derivatives” (Eur J Med Chem, 2023):
Blank lines part the entries; values can stand above or below the molecule they belong to.

What was measured:
[1] = system: Plasmodium falciparum; experiment: Antimalarial activity against Plasmodium falciparum assessed as reduction in parasite growth incubated for 48 hrs by Giemsa staining based analysis; format: functional, organism-based
[2] = system: Plasmodium falciparum; experiment: Antiplasmodial activity against Plasmodium falciparum 3D7 assessed as inhibition of parasitic growth; format: functional, organism-based
[3] = system: Plasmodium falciparum; experiment: Antimalarial activity against Plasmodium falciparum Dd2 assessed as reduction in parasitic growth; format: functional, organism-based
[4] = system: Plasmodium falciparum; experiment: Antimalarial activity against Plasmodium falciparum assessed as parasitic growth inhibition; format: functional, organism-based
[5] = system: Plasmodium falciparum; experiment: Antiplasmodial activity against chloroquine-sensitive Plasmodium falciparum 3D7 infected in human erythrocyte incubated for 72 hrs by SYBR green I staining based fluorescence assay; format: functional, organism-based; conditions: 3D7, Erythrocyte
[6] = system: Plasmodium falciparum; experiment: Antiplasmodial activity against Plasmodium falciparum Dd2 infected in human Erythrocyte measured after 72 hrs by SYBR green fluorescence dye based microplate reader analysis; format: functional, organism-based
[7] = system: Plasmodium falciparum; experiment: Antiplasmodial activity against Plasmodium falciparum Dd2 assessed as reduction in parasitic growth incubated for 48 hrs by SYBR Green staining based fluorescence analysis; format: functional, organism-based; conditions: Dd2, 48 h
[8] = system: Plasmodium falciparum; experiment: Antimalarial activity against chloroquine-sensitive Plasmodium falciparum NF54 assessed as reduction in cell growth; format: functional, organism-based
[9] = system: Plasmodium berghei; experiment: Antimalarial activity against Plasmodium berghei ANKA; format: functional, organism-based
[10] = system: Plasmodium falciparum; experiment: Antiplasmodial activity against Plasmodium falciparum NF54; format: functional, organism-based
[11] = Cytotoxicity against African green monkey Vero cells by MTT assay; format: toxicity, cell-based; conditions: African green monkey (Chlorocebus sabaeus)
[12] = system: Plasmodium falciparum; experiment: Antiplasmodial activity against Plasmodium falciparum 3D7 assessed as reduction in parasite growth by Lactate dehydrogenase assay; format: functional, organism-based
[13] = system: HepG2; experiment: Cytotoxicity against human HepG2 cells assessed as reduction in cell viability incubated for 24 hrs by MTT assay; format: functional
[14] = system: Plasmodium falciparum; experiment: Antimalarial activity against multi-drug resistant Plasmodium falciparum K1 assessed as reduction in parasite growth incubated for 48 hrs by SYBR green assay; format: functional, organism-based; conditions: K1, 48 h
[15] = system: Plasmodium falciparum; experiment: Antimalarial activity against chloroquine-sensitive Plasmodium falciparum 3D7 assessed as reduction in parasite growth incubated for 48 hrs by SYBR green assay; format: functional, organism-based; conditions: 3D7, 48 h
[16] = Cytotoxicity against African green monkey Vero cells assessed as reduction in cell viability incubated for 48 hrs by MTT assay; format: toxicity, cell-based; conditions: chlorocebus sabaeus
[17] = system: Plasmodium falciparum; experiment: Antimalarial activity against Plasmodium falciparum 3D7 assessed as reduction in parasite growth incubated for 48 hrs by Giemsa-staining counting based microscopic analysis; format: functional, organism-based; conditions: 3D7, 48 h
[18] = system: Plasmodium falciparum; experiment: Antimalarial activity against Plasmodium falciparum K1 assessed as reduction in parasitic growth incubated for 48 hrs by Giemsa-staining counting based microscopic analysis; format: functional, organism-based; conditions: K1, 48 h
[19] = Cytotoxicity against African green monkey Vero cells; format: toxicity, cell-based; conditions: chlorocebus sabaeus
[20] = system: Plasmodium falciparum; experiment: Antimalarial activity against Plasmodium falciparum W2 assessed as reduction in parasite growth incubated for 48 hrs by LDH assay; format: functional, organism-based; conditions: W2, 48 h
[21] = system: Plasmodium falciparum; experiment: Antimalarial activity against Plasmodium falciparum D6 assessed as reduction in parasite growth incubated for 48 hrs by LDH assay; format: functional, organism-based; conditions: D6, 48 h

SMILES: NC(S)=NNc1ccnc2cc(Cl)ccc12
IC50 [1]: 25400 nM

SMILES: CN(CCCCCCCCNc1ccnc2ccccc12)Cc1ccc(-c2ccc(-c3ccc(C#N)cc3)s2)cc1
IC50 [2]: 120 nM
IC50 [3]: 71.5 nM

SMILES: N#Cc1ccc(-c2ccc(-c3ccc(CNCCCCCCCCNc4ccnc5cc(Cl)ccc45)cc3)s2)cc1
IC50 [2]: 97.3 nM
IC50 [3]: 174 nM

SMILES: CC(CCCNCc1ccc(-c2csc3ccc(F)cc23)cc1)Nc1ccnc2cc(Cl)ccc12 (stereo not drawn)
IC50 [2]: 82.3 nM
IC50 [3]: 187 nM

SMILES: Fc1ccc2scc(-c3ccc(CNCCCNc4ccnc5ccccc45)cc3)c2c1
IC50 [2]: 18.8 nM
IC50 [3]: 73.3 nM

SMILES: Clc1ccc2c(Nc3ccncc3)ccnc2c1
IC50 [4]: 4230 nM

SMILES: C[C@H]1[C@H](OC(=O)CCC(=O)NCCNc2ccnc3cc(Cl)ccc23)O[C@@H]2O[C@@]3(C)CC[C@H]4[C@H](C)CC[C@@H]1[C@@]24OO3
EC50 [5]: 2.7 nM
EC50 [6]: 1 nM

SMILES: COc1ccc2nc(/C=C/c3ccncc3)cc(NCCN(C)C)c2c1
IC50 [7]: 33 nM

SMILES: C#Cc1ccc(-c2cn(CCNc3ccnc4cc(Cl)ccc34)nn2)cc1F
IC50 [8]: 150 nM

IC50 [9]: 390 nM
SMILES: COc1cc2c(cc1OC)CC(Nc1ccnc3cc(Cl)ccc13)C2

IC50 [10]: 437 nM
SMILES: O=C(NCCCNc1ccnc2cc(Cl)ccc12)C(=O)Nc1cc2c(cc1Cl)-c1ccccc1C2
IC50 [11]: 26000 nM

SMILES: O=C(O)/C=C/c1cccc(Nc2ccnc3cc(Cl)ccc23)c1
IC50 [12]: 9630 nM

SMILES: COc1ccc2nc(/C=C/c3ccncc3)cc(N3CCOCC3)c2c1
IC50 [7]: > 10000 nM

SMILES: CCN(CC)CC#CCNc1ccnc2cc(Cl)ccc12
MLD50 [13]: 1481 µM
IC50 [14]: 50 nM
IC50 [15]: 46 nM

IC50 [10]: 326 nM
SMILES: CC1(C)c2ccccc2-c2cc(Cl)c(NC(=O)C(=O)NCCCNc3ccnc4cc(Cl)ccc34)cc21
IC50 [11]: 17700 nM

SMILES: CCOC(=O)c1nn(CCNc2ccnc3cc(Cl)ccc23)c2c1C(C(C)C)C(C#N)=C(N)O2 (stereo not drawn)
CC50 at 48 h [16]: 86100 nM
EC50 [17]: 3390 nM
EC50 [18]: 300 nM

SMILES: Clc1ccc2c(NNc3ccncc3)ccnc2c1
IC50 [4]: 3750 nM

SMILES: N=C(N=C(N)N)SCCCNc1ccnc2cc(Cl)ccc12
CC50 [19]: > 11400 nM
IC50 [20]: 2130 nM

SMILES: O=C(/C=C/c1cccc(Nc2ccnc3cc(Cl)ccc23)c1)OC1CCCCC1
IC50 [12]: 16400 nM

SMILES: COC(=O)/C=C/c1ccccc1Nc1ccnc2cc(Cl)ccc12
IC50 [12]: 2320 nM

IC50 [10]: 204 nM
SMILES: O=C(CNCCCNc1ccnc2cc(Cl)ccc12)Nc1cc2c(cc1Cl)-c1ccccc1C21CCCC1
IC50 [11]: 12500 nM

SMILES: COc1ccc(/C(C)=N/C(=S)NNc2ccnc3cc(Cl)ccc23)cc1OC
IC50 [1]: 38700 nM

SMILES: Clc1ccc2c(Nc3nc[nH]n3)ccnc2c1
IC50 [1]: 42600 nM

SMILES: N=C(N=C(N)N)SCCCCNc1cc(C(F)(F)F)nc2c(C(F)(F)F)cccc12
CC50 [19]: > 8930 nM
IC50 [21]: > 8930 nM
IC50 [20]: > 8930 nM

SMILES: O=C(O)CNc1ccnc2cc(Cl)ccc12
MLD50 [13]: >1000 µM
IC50 [14]: > 10000 nM
IC50 [15]: > 10000 nM

SMILES: CCOC(=O)c1nn(CCNc2ccnc3cc(Cl)ccc23)c2c1C(c1ccccc1)C(C#N)=C(N)O2 (stereo not drawn)
CC50 at 48 h [16]: 103000 nM
EC50 [17]: 190 nM
EC50 [18]: 250 nM

IC50 [9]: 490 nM
SMILES: C[C@H](Cc1ccccc1)Nc1ccnc2cc(Cl)ccc12

SMILES: CCOC(=O)/C=C/c1cccc(Nc2ccnc3cc(Cl)ccc23)c1
IC50 [12]: 14400 nM

SMILES: N=C(N=C(N)N)SCCNc1cc(C(F)(F)F)nc2c(C(F)(F)F)cccc12
CC50 [19]: > 9420 nM
IC50 [21]: 7550 nM
IC50 [20]: 8040 nM

SMILES: C/C(=N\C(=S)NNc1ccnc2cc(Cl)ccc12)c1ccc2ccccc2c1
IC50 [1]: 79800 nM

SMILES: Clc1ccc2c(Nc3cccnc3)ccnc2c1
IC50 [4]: 4350 nM

SMILES: O=C(O)/C=C/c1ccc(Nc2ccnc3cc(Cl)ccc23)cc1
IC50 [12]: 18500 nM
